Measurements reported in patent US20100261770A1, “PHARMACEUTICAL COMPOSITION FOR IMPROVING LOWER URINARY TRACT SYMPTOMS” (ASTELLAS PHARMA INC., priority 2007, published 2010).
Where a name gives a salt, the structure may show the parent alone.

System: rats with bladder outlet obstruction
Assay: Effect on premicturition contraction in rats with bladder outlet obstruction
Type: in vivo
Details: iv; for inhibition of the premicturition contraction frequency (single use, ground for dose setting): 0.3 mg(/mL)/kg for the acetanilide compound, 0.001 mg(/mL)/kg for the sulfonamide hydrochloride; for ratio of the premicturition contraction frequency relative to the pre-administration value: drug A 0.3 mg/mL/kg, drug B 0.001 mg/mL/kg, AB combination at both doses, first micturition reflex after administration, 5 animals per group; for significant inhibition of the premicturition contraction (frequency): single use at 0.3 mg/kg or 0.001 mg/kg, or both combined, combination compared to any other groups
Protocol: The rats were fixed to a dorsal position under pentobarbital anesthesia (50 mg/kg ip), and a catheter (PE-20) was inserted into the bladder from the external urethral orifice. A midline incision was made in the lower abdominal wall, and the proximal urethra, together with the catheter, was tied at two sites with a silk suture (5-0), then, the catheter was removed and the surgical wound was sutured, and then ampicillin (150 mg/kg sc) as an antibiotic was administered to the animals which were then housed in a breeding cage. On the 11th to 12th day after the surgery, a midline incision was made in the lower abdominal wall under pentobarbital anesthesia (50 mg/kg ip), and the silk sutures tying the urethra were removed. The bladder was exposed, followed by drainage of urine, and a catheter (PE-50) was inserted into the bladder from the apical part the bladder and fixed. The other end of this catheter was lead to the outside from the posterior cervical region and then the surgical wound was sutured. In addition, a catheter (PE-50) for the drug administration was inserted into the jugular vein, and then the other end thereof was lead to the outside from the posterior cervical region. Ampicillin (150 mg/kg sc) was administered to the animals which were then returned to a breeding cage. Two to three days later, the rats were retained in a Bollman cage. The catheter inserted into the bladder was connected to a three-way stopcock valve, and one end was connected to a syringe pump (STC-525) and micturition reflex was induced by continuous infusion of physiological saline [3.6 to 12 mL/h (adjusted to achieve a voiding interval of 20 to 40 minutes)]. In addition, the other end was connected to a pressure transducer (TP-400T), and intravesical pressure was measured with a pressure amplifier (AP-601G). The premicturition contraction frequency [evaluated for 10 minutes prior to micturition reflex (maximum intravesical pressure); a contraction showing a drop of 1 cmH2O or more after a rise of 2 cmH2O or more was evaluated as one time] after the stabilization of micturition reflex by continuous infusion of physiological saline for 2 hours or more was taken as a pre-administration value. Vehicle or each drug was intravenously administered after intravesical pressure was lowered to a baseline, and the premicturition contraction frequency in the first micturition reflex was taken as a post-administration value, and evaluated by a ratio (%) relative to the pre-administration value. Drugs for the four groups examined are as follows. Evaluation was carried out using 5 animals for each group.

Row | SMILES | inhibition of the premicturition contraction frequency (single use, ground for dose setting) | ratio of the premicturition contraction frequency relative to the pre-administration value [%] | significant inhibition of the premicturition contraction (frequency)
1 | CCOc1ccccc1OCCN[C@H](C)Cc1ccc(OC)c(S(N)(=O)=O)c1 [drug B, (R)-5-(2-{[2-(2-ethoxyphenoxy)ethyl]amino}propyl)-2-methoxybenzene-1-sulfonamide hydrochloride] | about 15% | 84.8 | not recognized
2 | Nc1nc(CC(=O)Nc2ccc(CCNC[C@H](O)c3ccccc3)cc2)cs1 [drug A, (R)-2-(2-aminothiazol-4-yl)-4′-{2-[(2-hydroxy-2-phenylethyl)amino]ethyl}acetanilide] | about 15% | 85.0 | not recognized
